In patent US9429582B2, “Tyrosine-phosphorylated WBP2, a novel cancer target and biomarker” (National University of Singapore, priority 2010, dated 2016):

Assays:
Type in all cases: cell-based, human
[1] = system: WBP2; assay: Immunoblot of WBP2 expression in drug-treated WBP2-Y192-231E mutant-expressing MCF7; details: Y192-231E-expressing MCF7; 15 μM FH535; day 2-4 post-treatment
Experimental: A: Whole cell lysates from vector, WBP2-WT, WBP2-Y192-231E mutant and WBP2-Y192-231F mutant expressing MCF7 or Y192-231E mutant expressing MCF7 with WBP2 knockdown were used for IB analysis with antibodies indicated. B: Vector, WBP2-WT, WBP2-Y192-231E mutant or WBP2-Y192-231F mutant-expressing MCF7 were co-transfected with TOPFlash (top panel) or ERE-Luciferase (bottom panel) reporter construct. For cells co-transfected ERE-luciferase, they were either left alone or stimulated with 50 ng/ml Wnt3a ligand for 16 hrs. TCF/ERα luciferase activities in various conditions were then assayed. **P<0.01, ***P<0.001, Student's t-test (2-tailed). […] Cell numbers were measured. […]
Whole cell lysates from vector, WBP2-WT, WBP2-Y192-231E mutant and WBP2-Y192-231F mutant expressing MCF7 (A) or Y192-231E mutant expressing MCF7 with WBP2 knockdown (B) were used for IB analysis with antibodies indicated. Their expression levels were quantified in three independent experiments and the averages were presented relative to actin. […] TCF(C)/ER[…](D) luciferase activities in various conditions were then assayed and analyzed in relative to untreated vector control. **P<0.01, ***P<0.001, Student's t-test (2-tailed). […] Cell numbers were measured daily and compared in relative to vehicle treated vector-expressing cells on Day 0. […] Cell numbers were measured and compared in relative to vehicle-treated cells. […]

[2] = system: vector-expressing MCF7; assay: Cell proliferation (MTS / cell numbers) of vector-expressing MCF7
Experimental: A: Whole cell lysates from vector, WBP2-WT, WBP2-Y192-231E mutant and WBP2-Y192-231F mutant expressing MCF7 or Y192-231E mutant expressing MCF7 with WBP2 knockdown were used for IB analysis with antibodies indicated. B: Vector, WBP2-WT, WBP2-Y192-231E mutant or WBP2-Y192-231F mutant-expressing MCF7 were co-transfected with TOPFlash (top panel) or ERE-Luciferase (bottom panel) reporter construct. For cells co-transfected ERE-luciferase, they were either left alone or stimulated with 50 ng/ml Wnt3a ligand for 16 hrs. TCF/ERα luciferase activities in various conditions were then assayed. **P<0.01, ***P<0.001, Student's t-test (2-tailed). C: Vector or WBP2-Y192-231E mutant-expressing MCF7 were treated with indicated concentrations of Tamoxifen(Tam) and/or FH535. Cell numbers were measured. D: Whole cell lysates from WBP2-Y192-231E mutant-expressing MCF7 treated with 2 μM Tam and/or 15 μM FH5353 were harvested at day 2-4 post-treatment and used for IB analysis with antibodies indicated.
Whole cell lysates from vector, WBP2-WT, WBP2-Y192-231E mutant and WBP2-Y192-231F mutant expressing MCF7 (A) or Y192-231E mutant expressing MCF7 with WBP2 knockdown (B) were used for IB analysis with antibodies indicated. Their expression levels were quantified in three independent experiments and the averages were presented relative to actin. Representative blots (order in lanes from left to right: vector, WBP2, Y192-231E, Y192F) were presented as insets to the bar graphs. **P<0.01, ***P<0.001, Student's t-test (2-tailed) relative to vector. […] TCF(C)/ER[…](D) luciferase activities in various conditions were then assayed and analyzed in relative to untreated vector control. **P<0.01, ***P<0.001, Student's t-test (2-tailed). […] Cell numbers were measured daily and compared in relative to vehicle treated vector-expressing cells on Day 0. […] Cell numbers were measured and compared in relative to vehicle-treated cells. Their […] were analyzed statistically with SPSS 13.0. […] Cell numbers were measured on day 2 and day 4 and compared in relative to vehicle-treated control at each day (Top Panel). […]

[3] = system: TCF/β-catenin signaling; assay: TCF reporter activity / β-catenin recruitment in Y192-231E-expressing MCF7; details: preliminary study, data not shown
Experimental: The Dual-Luciferase TM reporter assay system (Promega) was used for sequential measurement of Firefly and Renilla luciferase activities according to manufacturer's instructions. Quantification of luciferase activities were carried out using a luminometer (Sirius).
The Dual-Luciferase TM reporter assay system (Promega) was used for sequential measurement of Firefly and Renilla luciferase activities according to manufacturer's instructions. Quantification of luciferase activities were carried out using a luminometer (Sirius, Berthold-DS Inc, Germany). Briefly, transfected cells in 24-well plate were rinsed once with ice-cold PBS and lysed in 1× Passive Lysis Buffer (PLB) for 15 min at RT. The crude lysate was first incubated with Luciferase Assay Substrate (LAR II) to measure the firefly luciferase activity, followed by incubation with Stop and Glo Substrate to measure the Renilla luciferase activity.
Next, we examined the relative contributions of ERα and Wnt pathway to WBP2-mediated cellular proliferation. […] Even at higher doses of up to 2000 nM, retardation of proliferation by Tamoxifen of Y192-231E-expressing cells remains unremarkable. FH535 is a recently identified small-molecule inhibitor of TCF/β-catenin signaling (31). […] No synergistic effect could be observed when Tamoxifen and FH535 were administered in combination.

Cc1cc([N+](=O)[O-])ccc1NS(=O)(=O)c1cc(Cl)ccc1Cl [FH535]
WBP2 expression [1]: without affecting
inhibition of growth / reduction of proliferation ([2]; MCF7 cells expressing vector, day 4, 100 nM fulvestrant or 15 μM FH535): about 30%
growth inhibition, dose dependence ([2]; vector stable transfectant, 0-50 μM FH535 for 2 days): dose dependent growth inhibition
TCF activity reduced ([3]; 24-hr post-treatment with 15 μM FH535 in Y192-231E-expressing MCF7): 50%
recruitment of β-catenin [3]: inhibits
